Paper PMC13342671 (Nature Communications, 2026)

Key:
Type in all cases: cell-based, Human
[1] = test system: p53 pathway genes in BxPC-3 cells; test: RNA sequencing / GSEA in BxPC-3 cells; details: 3 µM, 4 h
A549-p53^Y220C cells [2] = test: SA-β-galactosidase senescence stain; details: 3 µM, 6-day treatment
A549-p53^Y220C cells [3] = test: Apoptosis FACS; details: 3 µM

Compound | share of the top 116 p53 target genes with significantly increased expression [1] [%] | SA-β-gal senescence staining (in words) (A549-p53^Y220C cells [2]) | apoptosis induction (in words) (A549-p53^Y220C cells [3])
Cc1sc2c(c1C)C(c1ccc(Cl)cc1)=N[C@@H](CC(=O)OC(C)(C)C)c1nnc(C)n1-2 [JQ1] | 57.0 | relatively few senescent cells | slightly less apoptosis
CCn1c2ccc(CNCCOCCOCCOCCn3cc(COc4ccc(CCc5nc6cc(-c7c(C)noc7C)ccc6n5CCN5CCOCC5)cc4F)nn3)cc2c2ccc(-c3cc(C)cs3)cc21 [MS78] | 22.8 | – | –
